The source of these data is EPA's ToxValDB 9.5 (doi:10.2903/j.efsa.2006.56r).

Several values for one entry are separate records, joined by “and”; a condition that tells them apart may be missing. Equal values may be shown once.

Data set [1] has as its system Colinus virginianus. Conditions: for LC50: diet.
Data set [2] has as its system Apis mellifera. The settings on record: acute; for LD50: mortality.
Data set [3] concerns Oryctolagus sp. The settings on record: developmental; development.
The subject of data set [4] is Rattus norvegicus. The settings on record: for LD50: acute, mortality.
Data set [5] relates to Pontoscolex corethrurus. Conditions: for LC50: acute, mortality.
Data set [6] deals with Plant. The settings on record: acute.
Data set [7] has as its system Tagia sp. The settings on record: chronic/long-term.
For data set [8], the system named is Anas platyrhynchos. The settings on record: acute; oral; unspecified; mortality.
Data set [9] deals with Anatidae. The settings on record: reproductive.
Where [10] appears, read: chronic, duration: 2 years, oral, diet, M, organ weight.

What is called NOAEL is the highest dose or exposure tested at which no adverse effect was seen.

Regarding `CCCCOCCOC(=O)COc1nc(Cl)c(Cl)cc1Cl` [Triclopyr butotyl], the LC50 in data set [1] (acute, oral, mortality) is 1890 mg/kg-day; in data set [5], over 521 mg/kg. Further, the LD50 is 735 mg/kg in data set [1] (acute, oral, mortality); over 100 µg/piece in data set [2] (oral, unspecified); 803 mg/kg in data set [4] (oral). Moreover, the values for the LEC in [2] (dermal) and in data set [6] were over 100 µg/piece and 2200 µg/L, respectively. The no-observed-adverse-effect level (NOAEL) stood at 30 mg/kg-day in data set [3], 5 mg/kg-day in data set [4] (chronic) and 3 mg/kg-day in [4] (setting [10]). This molecule also returned an NOEC in data set [5] (chronic/long-term) of 9.6 mg/kg.
On to `O=C(O)COc1nc(Cl)c(Cl)cc1Cl` [Triclopyr], for which the NOEC worked out at 9.6 mg/kg in data set [7], 500 mg/kg-day in data set [1] (reproduction developmental) and 30 mg/kg-day in data set [9]. For the same molecule, the LD50 in [8] was 1700 mg/kg; in data set [2] (dermal), over 100 µg/piece; in data set [2] (oral, unspecified) it was over 100 µg/piece; in data set [4] (oral), 630 mg/kg. Besides, the LC50 in data set [1] (acute, oral, mortality) is 1030 mg/kg-day; in [5], over 983 mg/kg. Also, the NOAEL came out at 30 mg/kg-day in data set [3]; 3 mg/kg-day in [4] (setting [10]); 25 mg/kg-day in data set [4] (reproduction developmental, reproduction); 5 mg/kg-day in [4] (subchronic, duration: 13 weeks, oral, diet, M/F, histopathology: nonneoplastic). Moreover, the LEC (acute) is 117 mg/L and > 131 mg/L and 75.8 mg/L; the LEC (chronic) is 46.3 mg/L and 48.5 mg/L.
